Data reported in patent US10287616B2, “Label free biosensors, gram-negative bacteria detection, and real-time and end point determination of antibiotic effects” (priority 2015, dated 2019).
Like-named read-outs stand apart in the source and are kept apart here.

Legend:
[1] = system: E. coli W1485; assay: Real time experiment, SWV signal after 3 hours of incubation with antibiotic; assay type: cell-based, Escherichia coli; settings: 30 mg/L antibiotic; for SWV sensor signal: without antibiotic 0.37 μA
Experimental: Electrochemical measurements were performed on a GAMRY 4-channel electrochemical workstation. A three-electrode electrochemical cell composed of a Con A sensor as working electrode, platinum wire as counter electrode and Ag/AgCl (saturated KCl) electrode as reference electrode, was used. Square wave voltammetric measurements were performed under ambient conditions (21-23° C.). Each measurement had been repeated at least three times with independently prepared Con A sensors.
(§1) For the real time measurements, Con A sensor was mounted in a biosensor cell containing 1 mL of 10 mM HEPES buffer (pH 7.4). Real time QCM measurements were obtained for each experimental step. First, 1 μL of 5×10^8 cells/mL E. coli obtained from the stationary phase was added into the biosensor cell. When frequency reached a constant value, it was washed with 1 mL of 10 mM HEPES buffer to remove the unbound E. coli. […] The frequency changes vs time and the damping resistance vs time were recorded by QCM.
Different types of antibiotics have differing abilities to alter the LPS properties and subsequent reduction in their binding. This can be used as an indicator for the antibiotic effects for killing the bacteria or inhibiting their growth. The biosensor ability to quantitatively measure these parameters real time was tested. For that purpose, the Con A sensor was exposed to 1 μL of 5×10^8 cells/mL E. coli to capture the bacteria via Con A-LPS binding. The unbound E. coli was removed by washing with 1 mL of 10 mM HEPES buffer. […] In the three separate measurements shown in FIG. 25A, it can be clearly seen that the initial parts of the curves which are related to E. coli immobilization are almost coinciding to each other. This real time QCM measurement also allows us to observe the reproducibility of the sensor performance. In the last parts of the curves, when different antibiotics are added, their variable effects in killing the bacteria and reducing their binding caused a variable shift of the frequency. This shift was opposite in direction to what was obtained by bacterial addition which is indicative of reduced binding. These responses (shown in the inset) provided the quantitative details of this effect. […] Due to real time nature of this experiment, the frequency and damping resistance change were much smaller than that of FIGS. 24A and 24B. This confirms that the antibiotic drug effect on LPS is a slow process but the high sensitivity sensor disclosed herein allows such subtle changes to be measured. Moreover, the results of the QCM and Electrochemical measurements are validating each other again. […]

[2] = system: E. coli W1485; settings: for ΔF (Hz): 10 mg/L antibiotic, FIG. 27; for ΔR (Ω) / ΔR/R0 (%): 10 mg/L
Experimental: Experiments were also performed to study the concentration of the antibiotics and the length of the incubation time of antibiotics for their ability to kill or inhibit the growth of the bacteria. Different concentrations of each antibiotic were added to 5×10^8 cells/mL E. coli respectively, and then incubated at 37° C. and 280 rpm on the shaker. After 3 hours of incubation, 1 μL of antibiotic treated E. coli culture was added to the Con A sensor cell containing 1 mL of 10 mM HEPES buffer (pH 7.4) for QCM measurements, respectively. […] 1 μL of each antibiotic treated E. coli was taken at different incubation times (i.e., 0, 1, 2, 3 hours) and was added into the Con A senor cell containing 1 mL of 10 mM HEPES buffer (pH 7.4) for QCM measurements.
In most studies dealing with antibiotic-induced LPS release, bioreactive endotoxin has been measured by means of the Limulus amoebocyte lysate (LAL) assay, which involves an enzymatic reaction triggered by the core region of LPS. […] However, some antibiotics (i.e., aminoglycoside) are known to suppress the LAL reaction, which limits the application of LAL. Reproducible ELISA also can be used to detect LPS. […] A QCM is known to provide a very sensitive mass measuring device and dispense with the time- and cost-demanding labeling step and also eliminates any possible interference of the “true” binding process due to the presence of the labels.

[3] = system: E. coli W1485; settings: for ΔF (Hz): 30 mg/L antibiotic added after E. coli attached to sensor; for ΔF (Hz) / ΔR (Ω) / ΔR/R0 (%): FIG. 25A; for ΔR (Ω) / ΔR/R0 (%): 30 mg/L antibiotic added after E. coli attached; for frequency after antibiotic addition: 2 hour period after addition, from 350, 350 and 370 Hz before addition; for reduction of binding to (LPS activity, real time analysis): 1 hour time point
Experimental: The gold QCM electrode consisted of a thin AT-cut quartz crystal wafer with vapor deposited gold electrode on each side (10 MHz, non-polished with 1000 A gold, geometric area is 0.22 cm2, International Crystal Company). For all QCM test, the gold electrode was mounted on the side of a KeI-F cell chamber. Frequency monitoring was performed using a Maxtek RQCM quartz crystal microbalance research instrument. Baseline was recorded in 1 mL of 10 mM HEPES buffer containing 1 mM Ca^2+ and 1 mM Mn^2+. Each of the bacterial samples to be analyzed was then added into the detection sensor cell after stabilization of resonance frequency (shift less than 1 Hz·min-1). A small magnetic stir bar was used to increase the mass transfer through convection. The frequency changes (ΔF) of the QCM were monitored using a network/spectrum/impedance analyzer (Agilent 4395A) controlled by a PC via an Intel card.
as §1
Different types of antibiotics have differing abilities to alter the LPS properties and subsequent reduction in their binding. This can be used as an indicator for the antibiotic effects for killing the bacteria or inhibiting their growth. The biosensor ability to quantitatively measure these parameters real time was tested. For that purpose, the Con A sensor was exposed to 1 μL of 5×10^8 cells/mL E. coli to capture the bacteria via Con A-LPS binding. The unbound E. coli was removed by washing with 1 mL of 10 mM HEPES buffer.

| Structure (SMILES) | SWV sensor signal [1] [μA] | ΔF (Hz) ([2]; incubation time 0 h) | ΔF (Hz) ([2]; incubation time 1 h) | ΔF (Hz) ([2]; incubation time 2 h) | ΔF (Hz) ([2]; incubation time 3 h) | ΔR (Ω) ([2]; 0 h) | ΔR/R0 (%) ([2]; 0 h) | ΔR (Ω) ([2]; 1 h) | ΔR/R0 (%) ([2]; 1 h) | ΔR (Ω) ([2]; 2 h) | ΔR/R0 (%) ([2]; 2 h) | ΔR (Ω) ([2]; 3 h) | ΔR/R0 (%) ([2]; 3 h) | ΔF (Hz) [3] [Hz] | ΔR (Ω) [3] | ΔR/R0 (%) [3] [%] | frequency after antibiotic addition ([3]; 30 mg/L) [Hz] | reduction of binding to (LPS activity, real time analysis) ([3]; 30 mg/L) [%] | further results |
| --- | --- | --- | --- | --- | --- | --- | --- | --- | --- | --- | --- | --- | --- | --- | --- | --- | --- | --- | --- |
| CO/N=C(\C(=O)N[C@@H]1C(=O)N2C(C(=O)O)=C(CSc3nc(=O)c(=O)[nH]n3C)CS[C@H]12)c1csc(N)n1 [ceftriaxone] | 0.92 | 356 | 256 | 223 | 187 | 15 Ω | 4.9 | 15.5 Ω | 5.0 | 16.1 Ω | 5.2 | 16.6 Ω | 5.4 | −25 | −2.2 Ω | −0.7 | 325 | 93 | SWV sensor signal, fold of signal without antibiotic [1]: 2.50 fold; decrease in frequency (fold of value before antibiotic) ([3]; 30 mg/L, 2 hour period after antibiotic addition): 0.93 fold; reduction of binding to (LPS activity, real time analysis) ([3]; 30 mg/L, listed as Ceftriaxone): 93% |
| O=C(O)c1cn(C2CC2)c2cc(N3CCNCC3)c(F)cc2c1=O [ciprofloxacin] | 0.89 | – | – | – | – | 15 Ω | 4.9 | 17 Ω | 5.6 | 18.6 Ω | 6.1 | 14 Ω | 4.6 | – | −2.0 Ω | −0.6 | 320 | 91 | reduction of binding to (LPS activity, real time analysis) ([3]; 30 mg/L, listed as Ciprofloxacin): 91% |
| CN(C)[C@@H]1C(O)=C(C(N)=O)C(=O)[C@@]2(O)C(O)=C3C(=O)c4c(O)cccc4[C@@](C)(O)[C@H]3C[C@@H]12 [tetracycline] | 0.65 | 378 | 329 | 279 | 244 | 16 Ω | 5.3 | 17 Ω | 5.6 | 16 Ω | 5.2 | 15.6 Ω | 5.1 | −20 | −2.0 Ω | −0.6 | 350 | 95 | reduction of binding to (LPS activity, real time analysis) ([3]; 30 mg/L, listed as Tetracycline): 95% |
